Patent US9714247B2, “Multiple kinase pathway inhibitors” (Mannkind Corporation, priority 2012, dated 2017)
Like-named read-outs stand apart in the source and are kept apart here.

Columns and labels:
[1] = molecular target: Lyn (Homo sapiens (Human), UniProt P07948); conditions: read-out: Lyn IC50
[2] = tested on: Ramos; experiment: CellTiter-Glo proliferation/viability assay; assay type: cell-based, human; conditions: read-out: Ramos EC50
[3] = molecular target: BTK (Homo sapiens (Human), UniProt Q06187)
Chain of BTK (Q06187 whole entry): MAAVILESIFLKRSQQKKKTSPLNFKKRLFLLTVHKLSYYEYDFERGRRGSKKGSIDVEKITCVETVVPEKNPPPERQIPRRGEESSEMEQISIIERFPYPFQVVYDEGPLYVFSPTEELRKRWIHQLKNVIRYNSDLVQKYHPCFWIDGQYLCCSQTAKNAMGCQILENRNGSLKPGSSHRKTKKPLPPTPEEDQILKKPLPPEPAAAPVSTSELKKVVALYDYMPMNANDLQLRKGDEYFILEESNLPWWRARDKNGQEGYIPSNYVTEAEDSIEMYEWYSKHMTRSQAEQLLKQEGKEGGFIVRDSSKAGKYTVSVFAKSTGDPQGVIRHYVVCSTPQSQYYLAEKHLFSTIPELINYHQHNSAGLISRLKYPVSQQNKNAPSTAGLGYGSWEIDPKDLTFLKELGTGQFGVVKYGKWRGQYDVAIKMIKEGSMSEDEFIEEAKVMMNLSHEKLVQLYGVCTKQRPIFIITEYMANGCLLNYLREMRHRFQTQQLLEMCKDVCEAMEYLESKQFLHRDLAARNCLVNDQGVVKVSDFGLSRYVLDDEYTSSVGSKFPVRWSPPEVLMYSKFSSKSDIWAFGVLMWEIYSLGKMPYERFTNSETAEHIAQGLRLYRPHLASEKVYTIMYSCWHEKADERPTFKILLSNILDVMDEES

[4] = tested on: DoHH2; experiment: CellTiter-Glo proliferation/viability assay; assay type: cell-based, human; conditions: 48 hrs, read-out: DoHH2 EC50
[5] = molecular target: Src (Homo sapiens (Human), UniProt P12931); conditions: read-out: Src IC50
Chain of Src (P12931 whole entry, looked up): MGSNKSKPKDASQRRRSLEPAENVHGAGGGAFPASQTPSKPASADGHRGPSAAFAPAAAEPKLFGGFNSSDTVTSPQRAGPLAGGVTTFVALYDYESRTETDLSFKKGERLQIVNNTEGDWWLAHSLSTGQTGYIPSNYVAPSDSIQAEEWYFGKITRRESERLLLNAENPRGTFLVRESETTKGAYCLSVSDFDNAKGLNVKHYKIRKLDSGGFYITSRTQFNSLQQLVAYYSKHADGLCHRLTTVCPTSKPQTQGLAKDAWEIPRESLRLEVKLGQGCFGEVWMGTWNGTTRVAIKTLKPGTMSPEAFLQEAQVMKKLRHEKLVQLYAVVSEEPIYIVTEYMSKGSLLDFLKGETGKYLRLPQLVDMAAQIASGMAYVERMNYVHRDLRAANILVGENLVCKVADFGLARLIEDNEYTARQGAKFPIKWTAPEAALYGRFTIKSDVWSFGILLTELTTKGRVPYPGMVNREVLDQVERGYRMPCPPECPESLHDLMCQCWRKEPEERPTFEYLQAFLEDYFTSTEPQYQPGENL

Chain of Lyn (P07948 whole entry): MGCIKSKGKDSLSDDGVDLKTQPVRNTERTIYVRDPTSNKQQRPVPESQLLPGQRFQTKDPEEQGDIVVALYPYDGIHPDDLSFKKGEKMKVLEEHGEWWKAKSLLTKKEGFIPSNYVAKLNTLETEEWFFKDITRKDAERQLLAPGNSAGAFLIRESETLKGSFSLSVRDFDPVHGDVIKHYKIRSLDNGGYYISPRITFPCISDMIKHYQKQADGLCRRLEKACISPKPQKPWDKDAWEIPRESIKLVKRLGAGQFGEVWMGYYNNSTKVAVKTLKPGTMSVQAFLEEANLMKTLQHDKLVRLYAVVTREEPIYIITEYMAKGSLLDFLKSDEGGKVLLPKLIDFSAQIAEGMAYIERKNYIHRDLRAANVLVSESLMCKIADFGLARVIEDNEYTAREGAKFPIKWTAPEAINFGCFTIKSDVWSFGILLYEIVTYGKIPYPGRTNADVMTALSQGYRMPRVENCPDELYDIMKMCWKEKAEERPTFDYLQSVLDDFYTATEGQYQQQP

Structure (SMILES)	IC50 [1] [nM]	EC50 ([2]; Homo sapiens, Ramos, 48 hrs) [µM]	IC50 [3] [nM]	IC50 [5] [nM]	IC50 ([3]; read-out: BTK IC50) [nM]	EC50 ([2]; Homo sapiens, Ramos, 48 h) [µM]	EC50 ([2]; 48 hrs) [µM]	EC50 ([4]; Homo sapiens, DOHH-2) [nM]	EC50 [4] [nM]
CCn1c(=O)c(-c2cccs2)cc2cnc(Nc3ccc(C)cn3)cc21 [Compound 11, 1-Ethyl-7-(5-methyl-pyridin-2-ylamino)-3-thiophen-2-yl-1H-[1,6]naphthyridin-2-one]	> 5000	> 10	100 to 1000	> 5000	–	–	–	> 10000	–
O=c1c(-c2c(F)cccc2F)cc2cnc(Nc3ccc(F)cn3)cc2n1C1CCOCC1 [Compound 80, 3-(2,6-difluorophenyl)-7-((5-fluoropyridin-2-yl)amino)-1-(tetrahydro-2H-pyran-4-yl)-1,6-naphthyridin-2(1H)-one]	< 100	–	–	> 5000	–	> 10	–	< 1000	–
CCn1c(=O)c(-c2c(F)ccc(F)c2O)cc2cnc(Nc3ccc(N(C)C4CCN(C)CC4)cn3)cc21 [Compound 123, 3-(3,6-difluoro-2-hydroxyphenyl)-1-ethyl-7-((5-(methyl(1-methylpiperidin-4-yl)amino)pyridin-2-yl)amino)-1,6-naphthyridin-2(1H)-one]	< 100	1 to 10	–	< 100	< 100	–	–	< 1000	–
CCN(CC)CCOc1ccc(Nc2cc3c(cn2)cc(-c2ccccc2)c(=O)n3CC)cc1 [Compound 86]	< 100	–	–	1000	–	> 10	–	1000 to 10000	–
CCn1c(=O)c(-c2c(F)cccc2OC)cc2cnc(Nc3ccc(N(C)C4CCN(C)CC4)cn3)cc21 [Compound 118, 1-ethyl-3-(2-fluoro-6-methoxyphenyl)-7-((5-(methyl(1-methylpiperidin-4-yl)amino)pyridin-2-yl)amino)-1,6-naphthyridin-2(1H)-one]	< 100	–	–	< 100	< 100	1 to 10	–	< 1000	–
CCn1c(=O)c(C2CCCCC2)cc2cnc(Nc3ccc(C)cn3)cc21 [Compound 12, 3-Cyclohexyl-1-ethyl-7-(5-methyl-pyridin-2-ylamino)-1H-[1,6]naphthyridin-2-one]	> 5000	> 10	–	> 5000	> 5000	–	–	> 10000	–
CCn1c(=O)c(-c2c(Cl)cccc2Cl)cc2cnc(Nc3ccc(N(C)C4CCN(C)CC4)cn3)cc21 [Compound 121, 3-(2,6-dichlorophenyl)-1-ethyl-7-((5-(methyl(1-methylpiperidin-4-yl)amino)pyridin-2-yl)amino)-1,6-naphthyridin-2(1H)-one]	< 100	–	–	< 100	< 100	1 to 10	–	< 1000	–
CCn1c(=O)c(-c2cccc(F)c2)cc2cnc(Nc3ccc(C)cn3)cc21 [Compound 29, 1-ethyl-3-(3-fluorophenyl)-7-(5-methylpyridin-2-ylamino)-1,6-naphthyridin-2(1H)-one]	> 5000	> 10	–	> 5000	> 5000	–	–	> 10000	–
CN1CCC(N(C)c2ccc(Nc3cc4c(cn3)cc(-c3c(F)cccc3F)c(=O)n4C3CCCC3)nc2)CC1 [Compound 139, 1-cyclopentyl-3-(2,6-difluorophenyl)-7-((5-(methyl(1-methylpiperidin-4-yl)amino)pyridin-2-yl)amino)-1,6-naphthyridin-2(1H)-one]	< 100	–	–	< 100	< 100	1 to 10	–	< 1000	–
CN1CCC(N(C)c2ccc(Nc3cc4[nH]c(=O)c(-c5c(F)cccc5F)cc4cn3)nc2)CC1 [Compound 140, 3-(2,6-difluorophenyl)-7-((5-(methyl(1-methylpiperidin-4-yl)amino)pyridin-2-yl)amino)-1,6-naphthyridin-2(1H)-one]	< 100	1 to 10	–	< 100	< 100	–	–	< 1000	–
CCn1c(=O)c(-c2c(O)cccc2Cl)cc2cnc(Nc3ccc(N(C)C4CCN(C)CC4)cn3)cc21 [Compound 122, 3-(2-chloro-6-hydroxyphenyl)-1-ethyl-7-((5-(methyl(1-methylpiperidin-4-yl)amino)pyridin-2-yl)amino)-1,6-naphthyridin-2(1H)-one]	< 100	1 to 10	–	< 100	< 100	–	–	< 1000	–
CCn1c(=O)c(-c2c(Cl)cccc2Cl)cc2cnc(Nc3ccc(F)cn3)cc21 [Compound 76, 3-(2,6-dichlorophenyl)-1-ethyl-7-((5-fluoropyridin-2-yl)amino)-1,6-naphthyridin-2(1H)-one]	< 100	–	100 to 1000	< 100	–	> 10	–	< 1000	–
CCn1c(=O)c(-c2ccccc2)cc2cnc(Nc3ncc(C)o3)cc21 [Compound 9, 1-Ethyl-7-(5-methyl-oxazol-2-ylamino)-3-phenyl-1H-[1,6]naphthyridin-2-one]	> 5000	–	1000 to 5000	> 5000	–	> 10	–	1000 to 10000	–
CCOC(=O)/C=C/c1cc2cnc(Nc3ccc(C)cn3)cc2n(CC)c1=O [Compound 38]	> 5000	> 10	–	> 5000	> 5000	–	–	> 10000	–
CCn1c(=O)c(-c2cc(OC)ccc2F)cc2cnc(Nc3ccc(N(C)C4CCN(C)CC4)cn3)cc21 [Compound 119, 1-ethyl-3-(2-fluoro-5-methoxyphenyl)-7-((5-(methyl(1-methylpiperidin-4-yl)amino)pyridin-2-yl)amino)-1,6-naphthyridin-2(1H)-one]	–	1 to 10	100 to 1000	–	–	–	–	< 1000	–
O=c1c(-c2c(F)cccc2F)cc2cnc(Nc3ccc(F)cn3)cc2n1-c1ccccc1 [Compound 81, 3-(2,6-difluorophenyl)-7-((5-fluoropyridin-2-yl)amino)-1-phenyl-1,6-naphthyridin-2(1H)-one]	< 100	–	–	< 100	–	> 10	–	1000 to 10000	–
CCN(CC)CCOc1ccc(Nc2cc3c(cn2)cc(C(C)C)c(=O)n3C2CC2)nc1 [Compound 36, 1-Cyclopropyl-7-[5-(2-diethylamino-ethoxy)-pyridin-2-ylamino]-3-isopropyl-1H-[1,6]naphthyridin-2-one]	–	–	–	–	–	> 10	–	1000 to 10000	–

More lines, main results first:

IC50 [1] [nM]	EC50 ([2]; Homo sapiens, Ramos, 48 hrs) [µM]	IC50 [3] [nM]	IC50 [5] [nM]	IC50 ([3]; read-out: BTK IC50) [nM]	EC50 ([2]; Homo sapiens, Ramos, 48 h) [µM]	EC50 ([2]; 48 hrs) [µM]	Structure (SMILES)	EC50 ([4]; Homo sapiens, DOHH-2) [nM]	EC50 [4] [nM]
< 100	> 10	–	< 100	< 100	–	–	CN1CCN(CCCn2c(=O)c(-c3c(F)cccc3F)cc3cnc(Nc4ccc(F)cn4)cc32)CC1 [Compound 132, 3-(2,6-difluorophenyl)-7-((5-fluoropyridin-2-yl)amino)-1-(3-(4-methylpiperazin-1-yl)propyl)-1,6-naphthyridin-2(1H)-one]	< 1000	–
> 5000	–	1000 to 5000	> 5000	–	1 to 10	–	CCn1c(=O)ccc2cnc(Nc3ccc(C)cn3)cc21 [Compound 87]	1000 to 10000	–
> 5000	–	100 to 1000	< 100	–	< 1	–	CCn1c(=O)c(Br)cc2cnc(Nc3ccc(C)cn3)cc21 [Compound 88]	< 1000	–
–	> 10	–	–	> 5000	–	–	CCn1c(=O)c(-c2ccccc2)cc2cnc(NC3=NCCS3)cc21 [Compound 91]	> 10000	–
< 100	1 to 10	–	< 100	< 100	–	–	CN(C)CCCn1c(=O)c(-c2c(F)cccc2F)cc2cnc(Nc3ccc(F)cn3)cc21 [Compound 130, 3-(2,6-difluorophenyl)-1-(3-(dimethylamino)propyl)-7-((5-fluoropyridin-2-yl)amino)-1,6-naphthyridin-2(1H)-one]	< 1000	–
< 100	–	–	< 100	< 100	–	> 10	O=c1c(-c2c(Cl)cccc2Cl)cc2cnc(Nc3ccc(F)cn3)cc2n1C1CCOC1 (single isomer, unassigned) [Compound 148, (R or S)-3-(2,6-dichlorophenyl)-7-((5-fluoropyridin-2-yl)amino)-1-(tetrahydrofuran-3-yl)-1,6-naphthyridin-2(1H)-one]	–	< 1000
< 100	–	–	< 100	< 100	–	1 to 10	CCN(CC)CCOc1ccc(Nc2cc3c(cn2)cc(-c2c(F)cccc2F)c(=O)n3C2CCOC2)nc1 (single isomer, unassigned) [Compound 144, (R or S)-7-((5-(2-(diethylamino)ethoxy)pyridin-2-yl)amino)-3-(2,6-difluorophenyl)-1-(tetrahydrofuran-3-yl)-1,6-naphthyridin-2(1H)-one]	–	< 1000
< 100	> 10	100 to 1000	< 100	–	–	–	O=c1c(-c2c(F)cccc2F)cc2cnc(Nc3ccc(F)cn3)cc2n1CCCN1CCOCC1 [Compound 131, 3-(2,6-difluorophenyl)-7-((5-fluoropyridin-2-yl)amino)-1-(3-morpholinopropyl)-1,6-naphthyridin-2(1H)-one]	< 1000	–
> 5000	–	1000 to 5000	> 5000	–	> 10	–	CCn1c(=O)c(-c2ccccc2)cc2cnc(Nc3cccnn3)cc21 [Compound 112, 1-ethyl-3-phenyl-7-(pyridazin-3-ylamino)-1,6-naphthyridin-2(1H)-one]	> 10000	–
< 100	–	–	< 100	< 100	–	1 to 10	CCN(CC)CCOc1ccc(Nc2cc3c(cn2)cc(-c2c(Cl)cccc2Cl)c(=O)n3C2CCOC2)nc1 (single isomer, unassigned) [Compound 146, (R or S)-3-(2,6-dichlorophenyl)-7-((5-(2-(diethylamino)ethoxy)pyridin-2-yl)amino)-1-(tetrahydrofuran-3-yl)-1,6-naphthyridin-2(1H)-one]	–	< 1000
–	> 10	–	–	> 5000	–	–	CCn1c(=O)c(-c2ccccc2)cc2cnc(NC3=NCCO3)cc21 [Compound 90]	> 10000	–
